In ChEMBL document CHEMBL3885881, “DrugMatrix”:

Species on record: Rattus norvegicus
Assay: DrugMatrix - Regimen: Daily Repeat
Format: toxicity, organism-based, Sprague-Dawley
Set-up: regimen Daily Repeat, gender Male, age 6-8 weeks
Conditions: in vivo, po, route oral GAVAGE, vehicle .5 % CMC; for ABSOLUTE BASOPHIL / ABSOLUTE EOSINOPHIL / ABSOLUTE LYMPHOCYTE / ABSOLUTE MONOCYTE / ABSOLUTE SEGMENTED NEUTROPHIL / BASOPHIL / EOSINOPHIL / ERYTHROCYTE COUNT / HEMATOCRIT / HEMOGLOBIN / LEUKOCYTE COUNT / LYMPHOCYTE / MEAN CORPUSCULAR HEMOGLOBIN / MEAN CORPUSCULAR HEMOGLOBIN CONCENTRATION / MEAN CORPUSCULAR VOLUME / MONOCYTE / NEUTROPHIL / NUCLEATED RED BLOOD CELLS / PLATELET COUNT: tissue Blood; for ALANINE AMINOTRANSFERASE / ALBUMIN / ALKALINE PHOSPHATASE / ASPARTATE AMINOTRANSFERASE / BLOOD UREA NITROGEN / CARBON DIOXIDE / CHLORIDE / CHOLESTEROL / CREATINE PHOSPHOKINASE / CREATININE / GLUCOSE / LACTATE DEHYDROGENASE / LIPASE / PHOSPHORUS / POTASSIUM / SODIUM / TOTAL BILIRUBIN / TOTAL PROTEIN / URIC ACID: tissue Plasma
[1] = 12 mg/kg, 72 h, dose level High, time 3 day
[2] = 12 mg/kg, 120 h, dose level High, time 5 day
[3] = […], 72 h, dose 1.2 mg/Kg, dose level Low, time 3 day
[4] = […], 120 h, dose 1.2 mg/Kg, dose level Low, time 5 day

In the case of `N[C@@H](Cc1ccc(N(CCCl)CCCl)cc1)C(=O)O`, the “ABSOLUTE BASOPHIL” value [1] is reported as 0 CELLS/uL, the “ABSOLUTE EOSINOPHIL” value [1] is reported as 202.33 CELLS/uL and the “ABSOLUTE LYMPHOCYTE” value [1] is reported as 10252.33 CELLS/uL. The “ABSOLUTE MONOCYTE” value [1] was 0 CELLS/uL, the “ABSOLUTE SEGMENTED NEUTROPHIL” value [1] was 1345.33 CELLS/uL and the BASOPHIL [1] was 0%. For the same molecule, the EOSINOPHIL [1] was 1.67%, the “ERYTHROCYTE COUNT” value [1] was 5.67 x10E6/uL and the HEMATOCRIT [1] was 35.43%. For the same molecule, the HEMOGLOBIN [1] was 13.33 G/DL, the “LEUKOCYTE COUNT” value [1] was 11.8 x10E3/uL and the LYMPHOCYTE [1] was 86.67%. For the same molecule, the “MEAN CORPUSCULAR HEMOGLOBIN” value [1] was 23.57 pg, the “MEAN CORPUSCULAR HEMOGLOBIN CONCENTRATION” value [1] was 37.63 G/DL and the “MEAN CORPUSCULAR VOLUME” value [1] was 62.57 fL. The MONOCYTE [1] was 0%, the NEUTROPHIL [1] was 11.67% and the “NUCLEATED RED BLOOD CELLS” value [1] was 0 /100WBC. The “PLATELET COUNT” value [1] was 1376 x10E3/uL, the “ALANINE AMINOTRANSFERASE” value [1] was 52 u/L and the ALBUMIN [1] was 4.27 G/DL. The “ALKALINE PHOSPHATASE” value [1] was 346 u/L, the “ASPARTATE AMINOTRANSFERASE” value [1] was 88.33 u/L and the “BLOOD UREA NITROGEN” value [1] was 15 mg/dL. For the same molecule, the “CARBON DIOXIDE” value [1] was 25.67 mmol/L, the CHLORIDE [1] was 108.33 MEQ/L and the CHOLESTEROL [1] was 69.67 mg/dL. The “CREATINE PHOSPHOKINASE” value [1] was 205 u/L, the CREATININE [1] was 0.14 mg/dL and the GLUCOSE [1] was 177 mg/dL. For the same molecule, the “LACTATE DEHYDROGENASE” value [1] was 85.33 u/L, the LIPASE [1] was 8.33 u/L and the PHOSPHORUS [1] was 14 mg/dL. For the same molecule, the POTASSIUM [1] was 6.75 MEQ/L, the SODIUM [1] was 147.33 MEQ/L and the “TOTAL BILIRUBIN” value [1] was 0.17 mg/dL. For the same molecule, the “TOTAL PROTEIN” value [1] was 5.9 G/DL, the “URIC ACID” value [1] was 1.93 mg/dL and the “ABSOLUTE BASOPHIL” value [2] was 0 CELLS/uL. The “ABSOLUTE EOSINOPHIL” value [2] was 270.33 CELLS/uL, the “ABSOLUTE LYMPHOCYTE” value [2] was 13398.33 CELLS/uL and the “ABSOLUTE MONOCYTE” value [2] was 0 CELLS/uL. The “ABSOLUTE SEGMENTED NEUTROPHIL” value [2] was 1364.67 CELLS/uL, the BASOPHIL [2] was 0% and the EOSINOPHIL [2] was 1.67%. For the same molecule, the “ERYTHROCYTE COUNT” value [2] was 5.64 x10E6/uL, the HEMATOCRIT [2] was 35.4% and the HEMOGLOBIN [2] was 13.53 G/DL. The “LEUKOCYTE COUNT” value [2] was 15.03 x10E3/uL, the LYMPHOCYTE [2] was 89.33% and the “MEAN CORPUSCULAR HEMOGLOBIN” value [2] was 24.03 pg. The “MEAN CORPUSCULAR HEMOGLOBIN CONCENTRATION” value [2] was 38.23 G/DL, the “MEAN CORPUSCULAR VOLUME” value [2] was 62.83 fL and the MONOCYTE [2] was 0%. For the same molecule, the NEUTROPHIL [2] was 9%, the “NUCLEATED RED BLOOD CELLS” value [2] was 0 /100WBC and the “PLATELET COUNT” value [2] was 1253 x10E3/uL. For the same molecule, the “ALANINE AMINOTRANSFERASE” value [2] was 43.33 u/L, the ALBUMIN [2] was 4.17 G/DL and the “ALKALINE PHOSPHATASE” value [2] was 352 u/L. For the same molecule, the “ASPARTATE AMINOTRANSFERASE” value [2] was 75.67 u/L, the “BLOOD UREA NITROGEN” value [2] was 16 mg/dL and the “CARBON DIOXIDE” value [2] was 26.67 mmol/L. The CHLORIDE [2] was 101.67 MEQ/L, the CHOLESTEROL [2] was 68.67 mg/dL and the “CREATINE PHOSPHOKINASE” value [2] was 312.67 u/L. The CREATININE [2] was 0.24 mg/dL, the GLUCOSE [2] was 170.67 mg/dL and the “LACTATE DEHYDROGENASE” value [2] was 98.33 u/L. For the same molecule, the LIPASE [2] was 8 u/L, the PHOSPHORUS [2] was 13.23 mg/dL and the POTASSIUM [2] was 6.07 MEQ/L. The SODIUM [2] was 145.27 MEQ/L, the “TOTAL BILIRUBIN” value [2] was 0.2 mg/dL and the “TOTAL PROTEIN” value [2] was 5.97 G/DL. The “URIC ACID” value [2] was 1.5 mg/dL, the “ABSOLUTE BASOPHIL” value [3] was 0 CELLS/uL and the “ABSOLUTE EOSINOPHIL” value [3] was 212 CELLS/uL. For the same molecule, the “ABSOLUTE LYMPHOCYTE” value [3] was 11254.33 CELLS/uL, the “ABSOLUTE MONOCYTE” value [3] was 0 CELLS/uL and the “ABSOLUTE SEGMENTED NEUTROPHIL” value [3] was 1000.33 CELLS/uL. The BASOPHIL [3] was 0%, the EOSINOPHIL [3] was 1.67% and the “ERYTHROCYTE COUNT” value [3] was 5.5 x10E6/uL. For the same molecule, the HEMATOCRIT [3] was 35.4%, the HEMOGLOBIN [3] was 13.5 G/DL and the “LEUKOCYTE COUNT” value [3] was 12.47 x10E3/uL. For the same molecule, the LYMPHOCYTE [3] was 90.33%, the “MEAN CORPUSCULAR HEMOGLOBIN” value [3] was 24.53 pg and the “MEAN CORPUSCULAR HEMOGLOBIN CONCENTRATION” value [3] was 38.13 G/DL. The “MEAN CORPUSCULAR VOLUME” value [3] was 64.3 fL, the MONOCYTE [3] was 0% and the NEUTROPHIL [3] was 8%. The “NUCLEATED RED BLOOD CELLS” value [3] was 0 /100WBC, the “PLATELET COUNT” value [3] was 1333.67 x10E3/uL and the “ALANINE AMINOTRANSFERASE” value [3] was 50 u/L. For the same molecule, the ALBUMIN [3] was 4.43 G/DL, the “ALKALINE PHOSPHATASE” value [3] was 430.67 u/L and the “ASPARTATE AMINOTRANSFERASE” value [3] was 84.33 u/L. For the same molecule, the “BLOOD UREA NITROGEN” value [3] was 15.67 mg/dL, the “CARBON DIOXIDE” value [3] was 24 mmol/L and the CHLORIDE [3] was 105.67 MEQ/L. For the same molecule, the CHOLESTEROL [3] was 66.67 mg/dL, the “CREATINE PHOSPHOKINASE” value [3] was 180.33 u/L and the CREATININE [3] was 0.21 mg/dL. The GLUCOSE [3] was 171.33 mg/dL, the “LACTATE DEHYDROGENASE” value [3] was 164 u/L and the LIPASE [3] was 8.33 u/L. The PHOSPHORUS [3] was 13.1 mg/dL, the POTASSIUM [3] was 6.13 MEQ/L and the SODIUM [3] was 147.47 MEQ/L. For the same molecule, the “TOTAL BILIRUBIN” value [3] was 0.2 mg/dL, the “TOTAL PROTEIN” value [3] was 6.33 G/DL and the “URIC ACID” value [3] was 2.23 mg/dL. The “ABSOLUTE BASOPHIL” value [4] was 0 CELLS/uL, the “ABSOLUTE EOSINOPHIL” value [4] was 46.67 CELLS/uL and the “ABSOLUTE LYMPHOCYTE” value [4] was 6013.67 CELLS/uL. The “ABSOLUTE MONOCYTE” value [4] was 20.33 CELLS/uL, the “ABSOLUTE SEGMENTED NEUTROPHIL” value [4] was 619.33 CELLS/uL and the BASOPHIL [4] was 0%. The EOSINOPHIL [4] was 0.67%, the “ERYTHROCYTE COUNT” value [4] was 5.37 x10E6/uL and the HEMATOCRIT [4] was 34.83%. The HEMOGLOBIN [4] was 13.07 G/DL, the “LEUKOCYTE COUNT” value [4] was 6.7 x10E3/uL and the LYMPHOCYTE [4] was 89.67%. The “MEAN CORPUSCULAR HEMOGLOBIN” value [4] was 24.33 pg, the “MEAN CORPUSCULAR HEMOGLOBIN CONCENTRATION” value [4] was 37.53 G/DL and the “MEAN CORPUSCULAR VOLUME” value [4] was 64.87 fL. The MONOCYTE [4] was 0.33%, the NEUTROPHIL [4] was 9.33% and the “NUCLEATED RED BLOOD CELLS” value [4] was 0 /100WBC. The “PLATELET COUNT” value [4] was 1151 x10E3/uL, the “ALANINE AMINOTRANSFERASE” value [4] was 47 u/L and the ALBUMIN [4] was 4.33 G/DL. The “ALKALINE PHOSPHATASE” value [4] was 273.67 u/L, the “ASPARTATE AMINOTRANSFERASE” value [4] was 74.67 u/L and the “BLOOD UREA NITROGEN” value [4] was 14.33 mg/dL. For the same molecule, the “CARBON DIOXIDE” value [4] was 29.33 mmol/L, the CHLORIDE [4] was 101.67 MEQ/L and the CHOLESTEROL [4] was 74.67 mg/dL. For the same molecule, the “CREATINE PHOSPHOKINASE” value [4] was 206 u/L, the CREATININE [4] was 0.18 mg/dL and the GLUCOSE [4] was 137 mg/dL. The “LACTATE DEHYDROGENASE” value [4] was 89.33 u/L, the LIPASE [4] was 8.67 u/L and the PHOSPHORUS [4] was 11.6 mg/dL. The POTASSIUM [4] was 5.85 MEQ/L, the SODIUM [4] was 147.57 MEQ/L and the “TOTAL BILIRUBIN” value [4] was 0.2 mg/dL. The “TOTAL PROTEIN” value [4] was 6.17 G/DL and the “URIC ACID” value [4] was 0.8 mg/dL.
